The record followed here is patent US9994551B2, “Pyridazine derivatives as RORc modulators” (Genentech, Inc., priority 2015, dated 2018).

The term IC50 denotes the concentration at which inhibition is half-maximal. Low readings indicate greater potency in that assay, high ones weaker potency in that assay.

The target in this assay is T1, RORc ligand binding domain (Homo sapiens, UniProt P51449).
T1 construct: host or cells: E. coli
T1 sequence (P51449 269-508 limits assumed): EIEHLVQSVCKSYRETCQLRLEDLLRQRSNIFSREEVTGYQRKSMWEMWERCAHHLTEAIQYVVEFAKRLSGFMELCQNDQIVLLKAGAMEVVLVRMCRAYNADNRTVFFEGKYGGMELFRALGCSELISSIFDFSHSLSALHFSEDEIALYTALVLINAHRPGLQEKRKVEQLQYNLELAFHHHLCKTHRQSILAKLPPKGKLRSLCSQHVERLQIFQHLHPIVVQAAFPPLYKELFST
As to the kind of experiment: In vitro RORc ligand binding assay (25-[3H]hydroxycholesterol displacement, filter binding).
As for `CCOC(=O)c1coc(N2CCO[C@@H]([C@@]34CC[C@@H](c5cc(-c6c(F)cccc6F)nnc53)C4(C)C)C2)n1` [Compound 127, ethyl 2-[2-[5-(2,6-difluorophenyl)-11,11-dimethyl-3,4-diazatricyclo[6.2.1.02,7]undeca-2,4,6-trien-1-yl]morpholin-4-yl]oxazole-4-carboxylate], the IC50 is 5 nM. Next, `Cc1n[nH]c(N2CCO[C@H]([C@@]34CC[C@@H](c5cc(-c6c(F)cccc6F)nnc53)C4(C)C)C2)n1` [Compound 142, 2-[5-(2,6-difluorophenyl)-11,11-dimethyl-3,4-diazatricyclo[6.2.1.02,7]undeca-2,4,6-trien-1-yl]-4-(3-methyl-1H-1,2,4-triazol-5-yl)morpholine]: 19 nM; `CC1(C)[C@H]2CC[C@]1(Oc1cncc(C(=O)NCCO)n1)c1nnc(-c3c(F)cccc3F)cc12` [Compound 30, 6-(((5S,8R)-3-(2,6-difluorophenyl)-9,9-dimethyl-5,6,7,8-tetrahydro-5,8-methanocinnolin-8-yl)oxy)-N-(2-hydroxyethyl)pyrazine-2-carboxamide]: 836 nM; `CC1(C)[C@H]2CC[C@]1(OC(=O)N1CCC1)c1nnc(-c3c(F)cccc3F)cc12` [Compound 10, (5S,8R)-3-(2,6-difluorophenyl)-9,9-dimethyl-5,6,7,8-tetrahydro-5,8-methanocinnolin-8-yl azetidine-1-carboxylate]: 353 nM. Next, `CCOC(=O)c1coc(N2CCO[C@H]([C@@]34CC[C@@H](c5cc(-c6c(F)cccc6F)nnc53)C4(C)C)C2)n1` [Compound 126, ethyl 2-[2[5-(2,6-difluorophenyl)-11,11-dimethyl-3,4-diazatricyclo[6.2.1.02,7]undeca-2,4,6-trien-1-yl]morpholin-4-yl]oxazole-4-carboxylate]: 430 nM; `CC(=O)N1CCN(C)C[C@@H]1[C@@]12CC[C@@H](c3cc(-c4c(F)cccc4F)nnc31)C2(C)C` [Compound 182, 1-[2-[5-(2,6-difluorophenyl)-11,11-dimethyl-3,4-diazatricyclo[6.2.1.02,7]undeca-2,4,6-trien-1-yl]-4-methyl-piperazin-1-yl]ethanone]: 9.1 nM; `CN1CCN(C)[C@H]([C@@]23CC[C@@H](c4cc(-c5c(F)cccc5F)nnc42)C3(C)C)C1` [Compound 180, 5-(2,6-difluorophenyl)-1-(1,4-dimethylpiperazin-2-yl)-11,11-dimethyl-3,4-diazatricyclo[6.2.1.02,7]undeca-2,4,6-triene]: 16 nM. Next, `CC1(C)[C@H]2CC[C@]1(OCC(N)=O)c1nnc(-c3c(F)cccc3F)cc12` [Compound 47, 2-(((5S,8R)-3-(2,6-difluorophenyl)-9,9-dimethyl-5,6,7,8-tetrahydro-5,8-methanocinnolin-8-yl)oxy)acetamide]: 118 nM; `CC1(C)[C@H]2CC[C@]1(OC1(CC(N)=O)CC1)c1nnc(-c3c(F)cccc3F)cc12` [Compound 46, 2-(1-(((5S,8R)-3-(2,6-difluorophenyl)-9,9-dimethyl-5,6,7,8-tetrahydro-5,8-methanocinnolin-8-yl)oxy)cyclopropyl)acetamide]: 74.8 nM. On to `CC1(C)[C@H]2CC[C@]1(Oc1ccccn1)c1nnc(-c3c(F)cccc3F)cc12` [Compound 12, (5S,8R)-3-(2,6-difluorophenyl)-9,9-dimethyl-8-(pyridin-2-yloxy)-5,6,7,8-tetrahydro-5,8-methanocinnoline], for which the IC50 worked out at 42.5 nM. With `Cc1n[nH]c(C(=O)N2CCC[C@H]([C@@]34CC[C@@H](c5cc(-c6c(F)cccc6F)nnc53)C4(C)C)C2)n1` [Compound 129, [3-[5-(2,6-difluorophenyl)-11,11-dimethyl-3,4-diazatricyclo[6.2.1.02,7]undeca-2,4,6-trien-1-yl]-1-piperidyl]-(3-methyl-1H-1,2,4-triazol-5-yl)methanone], the IC50 worked out at 83 nM. `CC1(C)[C@H]2CC[C@]1([C@H]1CCCN(c3ccccn3)C1)c1nnc(-c3c(F)cccc3F)cc12` [Compound 163, 5-(2,6-difluorophenyl)-11,11-dimethyl-1-[1-(2-pyridyl)-3-piperidyl]-3,4-diazatricyclo[6.2.1.02,7]undeca-2,4,6-triene] registered an IC50 of 27 nM. The molecule `CC1(C)[C@H]2CC[C@]1([C@H]1CCCN(C(N)=O)C1)c1nnc(-c3c(F)cccc3F)cc12` [Compound 120, 3-[5-(2,6-difluorophenyl)-11,11-dimethyl-3,4-diazatricyclo[6.2.1.02,7]undeca-2,4,6-trien-1-yl]piperidine-1-carboxamide] returned an IC50 of 4.9 nM. The result for `CC[C@H](O[C@@]12CC[C@@H](c3cc(-c4c(F)cccc4F)nnc31)C2(C)C)C(=O)NCCO` [Compound 23, (S)-2-(((5S,8R)-3-(2,6-difluorophenyl)-9,9-dimethyl-5,6,7,8-tetrahydro-5,8-methanocinnolin-8-yl)oxy)-N-(2-hydroxyethyl)butanamide] reads 44.5 nM; that for `CNC(=O)c1cncc(O[C@@]23CC[C@@H](c4cc(-c5c(F)cccc5F)nnc42)C3(C)C)n1` [Compound 29, 6-(((5S,8R)-3-(2,6-difluorophenyl)-9,9-dimethyl-5,6,7,8-tetrahydro-5,8-methanocinnolin-8-yl)oxy)-N-methylpyrazine-2-carboxamide], 385 nM.
